# Key:
# Type in all cases: biochemical
# [1] = tested on: proteolysis in control-alfalfa leaf extracts (no PPO transgene); assay: Proteolysis (amino acid release) in control-alfalfa leaf extracts
# Description: (§1) Clarified extracts of red clover leaves were made in 50 mM MES, pH 6.5 (crude extract in Table 1). Where indicated, extracts were desalted using a Sephadex G-25 spin column equilibrated with 50 mM MES, pH 6.5, to remove low molecular weight molecules (i.e. o-diphenols). Extract protein concentrations were adjusted to 2 mg/ml with buffer. Where indicated, the o-diphenol in the form of caffeic acid (CA) was added to a final concentration of 3 mM. Extracts were incubated at 37° C. At the indicated times, samples were removed, trichloroacetic acid (TCA) added to 5%, and release of free amino acids (a measure of proteolytic activity) into the TCA-soluble supernatant was determined by ninhydrin assay. Data are the average of three experiments using independent tissue samples ±standard error.
# (§2) Proteolysis was measured in leaf extracts essentially as described in Experiment 1 above. The o-diphenol in the form of caffeic acid was added to 3 mM caffeic acid. Data are the average of three experiments using independent tissue samples ±standard error.
# (§3) Proteolysis after a four hour incubation at 37° C. was measured essentially as described for Experiment 1 above in leaf extracts of either transgenic alfalfa expressing the red clover PPO1 gene (PPO-alfalfa) or control-alfalfa not expressing an exogenous PPO gene (control-alfalfa) using the o-diphenol in the form of caffeic acid at various concentrations up to 10 mM. Data are the average of three experiments using independent tissue samples ±standard error.
# (§4) Proteolysis in the reaction mixtures following a four hour incubation at 37° C. was measured essentially as described above for reaction mixture with and without caffeic acid added to 3 mM (+CA and −CA, respectively). Data are the average of three experiments using independent tissue samples ±standard error.
# (§5) Proteolysis after a four hour incubation at 37° C. was measured (as described in Example 1 above) of alfalfa for reaction mixtures containing either 250 mU/ml PPO activity (protein adjusted to 2 mg/ml with control alfalfa extract) or a control alfalfa extract (2 mg/ml protein). Various o-diphenols were present in the reaction mixtures at 3 mM, including caffeic acid (CA) hydrocaffeic acid (HCA), chlorogenic acid (CGA), catechol, and (−)-epicatichin.
# [2] = tested on: proteolysis in leaf extracts of transgenic alfalfa expressing the red clover PPO1 gene; assay: Proteolysis (amino acid release) in PPO-alfalfa leaf extracts / alfalfa extracts with PPO activity; conditions: for inhibition of proteolysis: 3 mM caffeic acid
# Description: as §1, §2, §3, §4, §5
# [3] = tested on: polyphenol oxidase (PPO), red clover PPO1 gene product; assay: PPO activity (caffeic acid oxidized per minute, TNB protocol); conditions: PPO1 expressed in transgenic alfalfa
# Description: The o-diphenol compound is applied to forage at a rate ranging from about 5 to about 30 micromoles per gram of fresh weight forage and the oxidase is applied at a rate of about 0.1 to about 1 unit per gram of fresh weight forage. One unit is defined as one micromole of caffeic acid oxidized per minute by the following protocol.
# The protocol used to determine activity is carried out at 25° C. The buffer is 20 mM TRIS-acetate pH 7.0. The caffeic acid is 100 mM in ethyl alcohol. […] The decrease in absorbance at 412 nm (TNB) from 2-5 minutes is used to determine PPO activity.
# PPO activity present in reaction mixtures was varied from 0 to 500 mU/ml of extract by mixing extracts from PPO- and control-alfalfa (1 U=1 micromole caffeic acid oxidized/min; red clover and PPO-Alfalfa have 0.5-5 U activity/mg protein) to achieve a final protein concentration of 2 mg/ml. Proteolysis in the reaction mixtures following a four hour incubation at 37° C. was measured essentially as described above for reaction mixture with and without caffeic acid added to 3 mM (+CA and −CA, respectively). […]
# [4] = tested on: proteolytic activity in red clover leaf extracts; assay: Proteolysis (release of free amino acids, ninhydrin assay) in red clover leaf extracts; conditions: desalted red clover extract + 3 mM CA, 37° C.
# Description: as §1, with “At the indicated times, samples were removed, trichloroacetic acid (TCA) added to 5%, and release of free amino acids (a measure of proteolytic activity) into the TCA-soluble supernatant was determined by ninhydrin assay.” left out
# [5] = tested on: proteolysis in oat leaf extracts; assay: Proteolysis (amino acid release) in oat leaf extracts; conditions: for Mean amino acid release: with 3 mM Caffeic Acid
# Description: as §1
# Proteolysis was measured in oat leaf extracts or oat leaf extracts with PPO activity added (125 mU/ml). The added PPO activity was from an extract of red clover PPO1-expressing alfalfa. […] Total protein was 1.75 mg/ml. In Oat+alfalfa extracts, oat protein was present at 1.4 mg/ml and alfalfa protein was present at 0.35 mg/ml. Caffeic acid was present at 3 mM. Results in Table 6 below are for the average of two experiments using independent tissue samples.
# [6] = Control-Alfalfa extract 2 mg/ml protein, substrate 3 mM, 37° C.
# [7] = PPO-Alfalfa, 250 mU/ml PPO activity, substrate 3 mM, 37° C.
compound,measurement,setting,value
"O=C(/C=C/c1ccc(O)c(O)c1)O[C@@H]1C[C@](O)(C(=O)O)C[C@@H](O)[C@H]1O [CGA, chlorogenic acid]",Mean four hour Amino Acid Release,[1]; [6],0.80 ± 0.06 µmol/mg
same,Mean four hour Amino Acid Release,[2]; [7],0.26 ± 0.06 µmol/mg
"Oc1ccccc1O [Catechol, catechol]",Mean four hour Amino Acid Release,[1]; [6],0.71 ± 0.10 µmol/mg
same,proteolytic inhibition (in words),"[2]; 3 mM, PPO present (250 mU/ml), four hour",significant proteolytic inhibition
same,Mean four hour Amino Acid Release,[2]; [7],0.37 ± 0.05 µmol/mg
same,substrate quality for the red clover PPO1 gene product,[3],relatively poor substrate
"O=C(O)CCc1ccc(O)c(O)c1 [HCA, hydrocaffeic acid]",Mean four hour Amino Acid Release,[1]; [6],0.70 ± 0.07 µmol/mg
same,Mean four hour Amino Acid Release,[2]; [7],0.25 ± 0.07 µmol/mg
"Oc1cc(O)c2c(c1)O[C@H](c1ccc(O)c(O)c1)[C@H](O)C2 [Epicatichin, (−)-epicatichin]",Mean four hour Amino Acid Release,[1]; [6],0.64 ± 0.08 µmol/mg
same,Mean four hour Amino Acid Release,[2]; [7],0.25 ± 0.08 µmol/mg
"O=C(O)/C=C/c1ccc(O)c(O)c1 [CA, caffeic acid]",Mean four hour Amino Acid Release,"[1]; 3 mM Caffeic Acid, PPO 0 mU/ml (control-alfalfa extract), protein 2 mg/ml",0.79 ± 0.10 µmol/mg
same,Mean four hour Amino Acid Release,[1]; [6],0.75 ± 0.08 µmol/mg
same,Mean four hour Amino Acid Release,"[1]; Control-Alfalfa, caffeic acid 0.5 mM, 37° C.",0.75 ± 0.09 µmol/mg
same,Mean four hour Amino Acid Release,"[1]; Control-Alfalfa, caffeic acid 1 mM, 37° C.",0.69 ± 0.06 µmol/mg
same,Mean four hour Amino Acid Release,"[1]; Control-Alfalfa, caffeic acid 2 mM, 37° C.",0.70 ± 0.07 µmol/mg
same,Mean four hour Amino Acid Release,"[1]; Control-Alfalfa, caffeic acid 3 mM, 37° C.",0.66 ± 0.09 µmol/mg
same,Mean four hour Amino Acid Release,"[1]; Control-Alfalfa, caffeic acid 4 mM, 37° C.",0.75 ± 0.07 µmol/mg
same,Mean four hour Amino Acid Release,"[1]; Control-Alfalfa, caffeic acid 5 mM, 37° C.",0.75 ± 0.11 µmol/mg
same,Mean four hour Amino Acid Release,"[1]; Control-Alfalfa, caffeic acid 10 mM, 37° C.",0.65 ± 0.06 µmol/mg
same,effect on proteolysis,[1]; caffeic acid 3 mM added to control alfalfa extracts,no significant effect
same,effect on proteolysis,"[1]; in the absence of PPO activity, caffeic acid up to 10 mM",little effect
same,Mean four hour Amino Acid Release,"[2]; 3 mM Caffeic Acid, PPO 16 mU/ml, protein 2 mg/ml",0.36 ± 0.03 µmol/mg
same,Mean four hour Amino Acid Release,"[2]; 3 mM Caffeic Acid, PPO 32 mU/ml, protein 2 mg/ml",0.34 ± 0.05 µmol/mg
same,Mean four hour Amino Acid Release,"[2]; 3 mM Caffeic Acid, PPO 62.5 mU/ml, protein 2 mg/ml",0.21 ± 0.02 µmol/mg
same,Mean four hour Amino Acid Release,"[2]; 3 mM Caffeic Acid, PPO 125 mU/ml, protein 2 mg/ml",0.15 ± 0.03 µmol/mg
same,Mean four hour Amino Acid Release,"[2]; 3 mM Caffeic Acid, PPO 250 mU/ml, protein 2 mg/ml",0.12 ± 0.01 µmol/mg
same,Mean four hour Amino Acid Release,"[2]; 3 mM Caffeic Acid, PPO 500 mU/ml, protein 2 mg/ml",0.06 ± 0.03 µmol/mg
same,inhibition of proteolysis,"[2]; >125 mU/ml PPO activity, four hour",> 80%
same,inhibition of proteolysis,"[2]; PPO activity 16 mU/ml, four hour",> 50%
same,Mean four hour Amino Acid Release,[2]; [7],0.12 ± 0.03 µmol/mg
same,Mean four hour Amino Acid Release,"[2]; PPO-Alfalfa, caffeic acid 0.5 mM, 37° C.",0.32 ± 0.03 µmol/mg
same,Mean four hour Amino Acid Release,"[2]; PPO-Alfalfa, caffeic acid 1 mM, 37° C.",0.25 ± 0.03 µmol/mg
same,Mean four hour Amino Acid Release,"[2]; PPO-Alfalfa, caffeic acid 2 mM, 37° C.",0.16 ± 0.03 µmol/mg
same,Mean four hour Amino Acid Release,"[2]; PPO-Alfalfa, caffeic acid 3 mM, 37° C.",0.11 ± 0.02 µmol/mg
same,Mean four hour Amino Acid Release,"[2]; PPO-Alfalfa, caffeic acid 4 mM, 37° C.",0.08 ± 0.02 µmol/mg
same,Mean four hour Amino Acid Release,"[2]; PPO-Alfalfa, caffeic acid 5 mM, 37° C.",0.06 ± 0.01 µmol/mg
same,Mean four hour Amino Acid Release,"[2]; PPO-Alfalfa, caffeic acid 10 mM, 37° C.",0.04 ± 0.02 µmol/mg
same,proteolytic inhibition compared to extracts to which no caffeic acid was added,"[2]; caffeic acid 0.5 mM, PPO-alfalfa extract, four hour",> 50%
same,reduction in proteolysis,[2]; caffeic acid 3 mM added to PPO-alfalfa extract,~80%
same,proteolytic inhibition,"[2]; caffeic acid 3 mM, PPO-alfalfa extract, four hour",> 80%
same,release of free amino acids,[4]; 0 h,0.00 ± 0.00
same,release of free amino acids,[4]; 1 h,0.04 ± 0.01
same,release of free amino acids,[4]; 2 h,0.06 ± 0.01
same,release of free amino acids,[4]; 3 h,0.09 ± 0.01
same,release of free amino acids,[4]; 4 h,0.11 ± 0.02
same,proteolytic inhibition,[5]; 3 mM caffeic acid with exogenous PPO added (125 mU/ml) to oat extract,~50%
same,Mean amino acid release,"[5]; Oat extract, time 0",0.00 ± 0.00 μmol/mg protein
same,Mean amino acid release,"[5]; Oat extract, time 1",0.82 ± 0.18 μmol/mg protein
same,Mean amino acid release,"[5]; Oat extract, time 2",1.39 ± 0.09 μmol/mg protein
same,Mean amino acid release,"[5]; Oat extract, time 3",1.73 ± 0.15 μmol/mg protein
same,Mean amino acid release,"[5]; Oat extract, time 4",1.79 ± 0.07 μmol/mg protein
same,Mean amino acid release,"[5]; Oat/Control-Alf extract, time 0",0.00 ± 0.00 μmol/mg protein
same,Mean amino acid release,"[5]; Oat/Control-Alf extract, time 1",0.75 ± 0.17 μmol/mg protein
same,Mean amino acid release,"[5]; Oat/Control-Alf extract, time 2",1.42 ± 0.06 μmol/mg protein
same,Mean amino acid release,"[5]; Oat/Control-Alf extract, time 3",1.73 ± 0.05 μmol/mg protein
same,Mean amino acid release,"[5]; Oat/Control-Alf extract, time 4",1.91 ± 0.05 μmol/mg protein
same,Mean amino acid release,"[5]; Oat/PPO-Alf (PPO 125 mU/ml), time 0",0.00 ± 0.00 μmol/mg protein
same,Mean amino acid release,"[5]; Oat/PPO-Alf (PPO 125 mU/ml), time 1",0.60 ± 0.20 μmol/mg protein
same,Mean amino acid release,"[5]; Oat/PPO-Alf (PPO 125 mU/ml), time 2",0.80 ± 0.13 μmol/mg protein
same,Mean amino acid release,"[5]; Oat/PPO-Alf (PPO 125 mU/ml), time 3",0.82 ± 0.11 μmol/mg protein
same,Mean amino acid release,"[5]; Oat/PPO-Alf (PPO 125 mU/ml), time 4",1.02 ± 0.22 μmol/mg protein
same,lower proteolysis than counterparts lacking caffeic acid,[5]; all oat reactions containing 3 mM CA,10-30%
